Data taken from patent US20090048295A1, “SUBSTITUTED 5,6,7,8-TETRAHYDROQUINOLINE DERIVATIVES, COMPOSITIONS, AND METHODS OF USE THEREOF” (priority 2007, published 2009).
“And” between values parts separate entries of the source, which are not always exact repeats. Identical values can stand only once.

Target: T1, C5a receptor (Homo sapiens, UniProt P21730)
T1 sequence (P21730 1-350): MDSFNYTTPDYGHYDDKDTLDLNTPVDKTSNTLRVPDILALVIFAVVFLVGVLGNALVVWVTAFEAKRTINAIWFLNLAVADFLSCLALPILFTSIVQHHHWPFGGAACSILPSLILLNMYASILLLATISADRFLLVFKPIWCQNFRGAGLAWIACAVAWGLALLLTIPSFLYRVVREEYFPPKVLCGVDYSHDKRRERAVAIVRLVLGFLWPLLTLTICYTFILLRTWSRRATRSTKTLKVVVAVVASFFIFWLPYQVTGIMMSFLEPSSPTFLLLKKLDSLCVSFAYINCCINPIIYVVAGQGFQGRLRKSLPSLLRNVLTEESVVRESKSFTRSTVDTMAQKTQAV
Assay: [125I]-C5a Radioligand Binding Assay (competition binding, differentiated U937 cells);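 also: cells preincubated with compound 30 min at room temperature, then 60 min at 4 °C with radioligand, bound counts read by scintillation, nonspecific binding defined with 100 nM C5a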
Conditions: for [125I]-C5a Binding % Inhibition 1 μM: test compound 1 μM; for [125I]-C5a Binding % Inhibition 1 μM / [125I]-C5a Binding % Inhibition 10 μM / inhibition at 1 µM / inhibition at 10 µM: [125I]-C5a 0.05 nM, U937 cells, multiple values = duplicate experiments; for [125I]-C5a Binding % Inhibition 10 μM: test compound 10 μM; for inhibition at 1 µM: read-out: [125I]-C5a Binding % Inhibition 1 μM, test compound 1 μM; for inhibition at 10 µM: read-out: [125I]-C5a Binding % Inhibition 10 μM, test compound 10 μM
Procedure: Competition binding assays for C5a receptors were performed by incubation of differentiated U937 cells (200,000 cells/well), test compound (1% DMSO) and [^125I]-C5a (Bolton & Hunter labeled, Perkin Elmer, specific activity=2200 Ci/mmol, 0.05 nM final) in binding buffer consisting of 50 mM HEPES, 5 mM MgCl2, 1 mM CaCl2, 0.5% protease-free BSA, 0.02% NaN3, pH 7.4. 100× solutions of test compounds were prepared in DMSO and further diluted in binding buffer. Non-specific binding was defined in wells containing 100 nM recombinant C5a. Cells and compound were pre-incubated for 30 min at RT. After addition of the radioligand, further incubation for 60 min occurred at 4° C. Cells were harvested on GF/B filters—presoaked in 0.5% polyethylenimine, followed by washing with binding buffer containing 500 mM NaCl, pH 7.4. Filter bound radioactivity was determined by liquid scintillation counting. IC50 and Ki values were calculated using non-linear regression in Graphpad Prism. Ki is calculated using the equation of Cheng and Prusoff (Biochem. Pharmacol. 1973, 22: 3099-3108)

| Molecule | [125I]-C5a Binding % Inhibition 1 μM | [125I]-C5a Binding % Inhibition 10 μM | inhibition at 1 µM [%] | inhibition at 10 µM [%] | Kd (read-out: C5a Kd, Kd of C5a used for the Ki calculation) [nM] |
| --- | --- | --- | --- | --- | --- |
| CCc1cccc(CC)c1-c1cc(OC)c2c(n1)CCCC2Nc1cccc2ccccc12 (stereo not drawn) [Compound 132] | 12% | 34% | – | – | – |
| CCN(c1cccc2ccccc12)C1CCCc2nc(-c3ccccc3-c3ccccc3)cc(OC)c21 (stereo not drawn) [Compound 107] | – | – | 76 | 84 | – |
| CCc1cccc(CC)c1-c1cc(OC)c2c(n1)CCCC2Nc1ccccc1C (stereo not drawn) [Compound 46] | – | – | 81 | 87 | – |
| CCc1cccc(CC)c1-c1cc(OC)c2c(n1)CCCC2N(C)c1cccc2c(OC)cccc12 (stereo not drawn) [Compound 118] | – | – | 71 | 77 | – |
| CCc1cccc(CC)c1-c1cc(OC)c2c(n1)CCCC2N(C)c1cc(-c2ccccc2)ccc1C (stereo not drawn) [Compound 122] | – | – | 81 | 84 | – |
| CCc1cccc(CC)c1-c1cc(OC)c2c(n1)CCCC2N(CC)c1cccc2ccccc12 (racemic) [Compound 12, (±)-[2-(2,6-Diethyl-phenyl)-4-methoxy-5,6,7,8-tetrahydro-quinolin-5-yl]-ethyl-naphthlen-1-yl-amine] | 88% and 98% and 101% and 100% and 81% | 92% and 102, 102, % and 90% | 94 | 97 | – |
| CCc1cccc(CC)c1-c1cc(OC)c2c(n1)CCC[C@H]2N(CC)c1cccc2ccccc12 [Compound 4] | 99% | 101% | 94 | 95 | – |
| CCc1cccc(CC)c1-c1cc(OC)c2c(n1)CCCC2N1CCc2ccc(OC)cc2C1 (stereo not drawn) [Compound 100] | – | – | 70 | 82 | – |
| CCc1cccc(CC)c1-c1cc(OC)c2c(n1)CCCC2N1CCc2cc(OC)c(OC)cc2C1 (stereo not drawn) [Compound 127] | – | – | -9 | 42 | – |
| CCc1cccc(CC)c1-c1cc(OC)c2c(n1)CCCC2Nc1cccc2ccccc12 (stereo not drawn) [Compound 103] | 48% | 61% | – | – | – |
| CCN(c1cccc2ccccc12)C1CCCc2nc(-c3cccnc3)cc(OC)c21 (stereo not drawn) [Compound 136] | – | – | 2 | 35 | – |
| COc1cc(-c2c(C)cccc2C)nc2c1C(N(C)c1c(C)cccc1C)CCC2 (stereo not drawn) [Compound 114] | – | – | 63 | 73 | – |
| CCc1cccc(CC)c1-c1cc(OC)c2c(n1)CCCC2N1CCc2ccc(C(F)(F)F)cc2C1 (stereo not drawn) [Compound 101] | – | – | 75 | 79 | – |
| CCN(c1cccc2ccccc12)C1CCCc2nc(-c3ccsc3)cc(OC)c21 (stereo not drawn) [Compound 134] | – | – | -8 | 40 | – |
| C5a: anaphylatoxin C5a, 74-amino acid N-terminal fragment of complement factor C5; recombinant human C5a (Sigma), radioligand [125I]-C5a (protein, UniProt P01031 678-751, looked up, C5a anaphylatoxin also 125I-labelled radioligand) C5a anaphylatoxin: TLQKKIEEIAAKYKHSVVKKCCYDGACVNNDETCEQRAARISLGPRCIKAFTECCVVASQLRANISHKDMQLGR | – | – | – | – | 0.324 |
